Data reported in article PMC5328913 (Redox Biology, 2017).

Molecular target: T1, L-galactono-1,4-lactone dehydrogenase (GalLDH) from pepper fruits (Capsicum annuum, UniProt Q6QD76)
T1 sequence (Q6QD76 38-586): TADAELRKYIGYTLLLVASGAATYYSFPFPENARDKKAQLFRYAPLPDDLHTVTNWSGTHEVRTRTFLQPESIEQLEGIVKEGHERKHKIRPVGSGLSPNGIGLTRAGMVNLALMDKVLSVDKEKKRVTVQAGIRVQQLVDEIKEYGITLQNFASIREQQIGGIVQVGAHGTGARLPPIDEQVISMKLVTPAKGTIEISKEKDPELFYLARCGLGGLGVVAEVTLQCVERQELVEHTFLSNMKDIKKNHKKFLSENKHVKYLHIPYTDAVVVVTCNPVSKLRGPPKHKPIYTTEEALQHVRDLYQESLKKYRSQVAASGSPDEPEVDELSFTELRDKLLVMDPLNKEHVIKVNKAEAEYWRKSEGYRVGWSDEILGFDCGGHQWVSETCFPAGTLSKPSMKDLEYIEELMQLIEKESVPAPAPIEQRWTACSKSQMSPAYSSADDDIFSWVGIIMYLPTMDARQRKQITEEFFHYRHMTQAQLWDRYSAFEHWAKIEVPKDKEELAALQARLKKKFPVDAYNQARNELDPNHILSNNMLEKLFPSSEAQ
Assay: spectrophotometric cytochrome c reduction at […] nm
Assay type: biochemical
Settings: read-out: % inhibition at 0.5 mM and 2 mM

inhibition at 500 µM: 60%
Compound: N[C@@H](CCC(=O)N[C@@H](CS)C(=O)NCC(=O)O)C(=O)O [GSH, reduced glutathione]
